# Experiments:
# Assay type in all cases: biochemical
# [1] = target: T1, JAK1 (Homo sapiens, UniProt P23458); assay: JAK1 enzyme inhibition test (LANCE method); settings: 1 μM test compound; read-out: JAK1 enzyme inhibitory activity (%, 1 μM)
# T1 construct: purchased Invitrogen
# Experimental: (§1) JAK1 enzyme inhibitory activity of test compounds was measured by the LANCE method (PerkinElmer). First, a test compound diluted with assay buffer (50 mM HEPES (pH 7.5), 10 mM MgCl2, 1 mM EGTA, 2 mM DTT, 0.01% Tween20, 0.01% BSA) was added to a 384-well plate by 2 μL each. Then, a JAK1 (Invitrogen) solution and a fluorescence-labeled peptide substrate (ULight-JAK1, PerkinElmer) solution diluted with assay buffer to 187.5 ng/mL and 300 nM, respectively, were added by 2 μL each. Then, an enzyme reaction was started by adding 2 μL each of ATP solution prepared with assay buffer to 150 μM. After the reaction at room temperature for 1 hr, Detection Buffer (PerkinElmer) prepared to contain 20 mM EDTA, 4 nM europium-labeled anti-phosphotyrosine antibody (PerkinElmer) was added by 6 μL each. After standing at room temperature for 1 hr, fluorescence intensity (excitation wavelength 340 nm, fluorescence wavelength 665 nm, delay time 100 microseconds) was measured by a plate reader, Envision (PerkinElmer). The inhibitory activity of each compound was calculated as a relative activity value to the fluorescence intensity of a well free of enzyme as 100% inhibition.
# [2] = target: T2, TYK2 (Homo sapiens, UniProt P29597); assay: TYK2 enzyme inhibition test (LANCE method); settings: 1 μM test compound; read-out: TYK2 enzyme inhibitory activity (%, 1 μM)
# T2 construct: purchased Invitrogen
# Experimental: as §1, with “TYK2 enzyme” for “JAK1 enzyme”, “a TYK2” for “a JAK1”, “to 375” for “to 187.5”, “to 30” for “to 150”
# [3] = target: T3, JAK3 (Homo sapiens, UniProt P52333); assay: JAK3 enzyme inhibition test (LANCE method); settings: 1 μM test compound; read-out: JAK3 enzyme inhibitory activity (%, 1 μM)
# T3 construct: purchased Invitrogen
# T3 sequence (P52333 1-1124): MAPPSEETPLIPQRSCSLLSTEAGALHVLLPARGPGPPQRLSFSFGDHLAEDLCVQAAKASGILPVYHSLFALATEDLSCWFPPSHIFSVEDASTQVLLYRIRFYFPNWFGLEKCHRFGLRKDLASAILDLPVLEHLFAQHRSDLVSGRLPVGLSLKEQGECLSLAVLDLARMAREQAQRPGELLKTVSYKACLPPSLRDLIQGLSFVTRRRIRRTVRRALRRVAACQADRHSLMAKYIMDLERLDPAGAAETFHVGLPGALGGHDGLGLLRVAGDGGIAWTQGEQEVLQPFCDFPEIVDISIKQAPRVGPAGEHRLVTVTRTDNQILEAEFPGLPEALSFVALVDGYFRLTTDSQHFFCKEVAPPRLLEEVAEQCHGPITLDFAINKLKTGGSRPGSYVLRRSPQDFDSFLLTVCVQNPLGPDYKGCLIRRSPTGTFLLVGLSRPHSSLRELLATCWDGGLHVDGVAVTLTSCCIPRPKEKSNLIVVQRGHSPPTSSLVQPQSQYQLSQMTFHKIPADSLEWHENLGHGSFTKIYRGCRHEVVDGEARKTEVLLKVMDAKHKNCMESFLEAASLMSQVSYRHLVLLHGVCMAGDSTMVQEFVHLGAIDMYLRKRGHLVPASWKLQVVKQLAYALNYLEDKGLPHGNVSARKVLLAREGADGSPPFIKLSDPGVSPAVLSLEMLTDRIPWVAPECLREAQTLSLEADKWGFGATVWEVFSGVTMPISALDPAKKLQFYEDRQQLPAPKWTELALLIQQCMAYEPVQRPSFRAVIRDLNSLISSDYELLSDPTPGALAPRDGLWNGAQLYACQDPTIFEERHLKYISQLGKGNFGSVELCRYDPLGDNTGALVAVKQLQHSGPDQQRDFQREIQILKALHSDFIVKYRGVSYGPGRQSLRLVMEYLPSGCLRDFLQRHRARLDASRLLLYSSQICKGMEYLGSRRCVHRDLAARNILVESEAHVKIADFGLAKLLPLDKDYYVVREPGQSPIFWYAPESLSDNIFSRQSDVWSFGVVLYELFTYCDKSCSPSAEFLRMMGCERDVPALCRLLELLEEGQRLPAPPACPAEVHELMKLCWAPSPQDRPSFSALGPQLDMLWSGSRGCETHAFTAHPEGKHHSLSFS
# Experimental: as §1, with “JAK3 enzyme” for “JAK1 enzyme”, “a JAK3” for “a JAK1”, “to 12” for “to 187.5”, “to 15” for “to 150”
# [4] = target: T4, JAK2 (Homo sapiens, UniProt O60674); assay: JAK2 enzyme inhibition test (LANCE method); settings: 1 μM test compound; read-out: JAK2 enzyme inhibitory activity (%, 1 μM)
# T4 construct: purchased Invitrogen
# Experimental: as §1, with “JAK2 enzyme” for “JAK1 enzyme”, “a JAK2” for “a JAK1”, “to 6” for “to 187.5”, “to 45” for “to 150”
# T1 sequence (P23458 whole entry): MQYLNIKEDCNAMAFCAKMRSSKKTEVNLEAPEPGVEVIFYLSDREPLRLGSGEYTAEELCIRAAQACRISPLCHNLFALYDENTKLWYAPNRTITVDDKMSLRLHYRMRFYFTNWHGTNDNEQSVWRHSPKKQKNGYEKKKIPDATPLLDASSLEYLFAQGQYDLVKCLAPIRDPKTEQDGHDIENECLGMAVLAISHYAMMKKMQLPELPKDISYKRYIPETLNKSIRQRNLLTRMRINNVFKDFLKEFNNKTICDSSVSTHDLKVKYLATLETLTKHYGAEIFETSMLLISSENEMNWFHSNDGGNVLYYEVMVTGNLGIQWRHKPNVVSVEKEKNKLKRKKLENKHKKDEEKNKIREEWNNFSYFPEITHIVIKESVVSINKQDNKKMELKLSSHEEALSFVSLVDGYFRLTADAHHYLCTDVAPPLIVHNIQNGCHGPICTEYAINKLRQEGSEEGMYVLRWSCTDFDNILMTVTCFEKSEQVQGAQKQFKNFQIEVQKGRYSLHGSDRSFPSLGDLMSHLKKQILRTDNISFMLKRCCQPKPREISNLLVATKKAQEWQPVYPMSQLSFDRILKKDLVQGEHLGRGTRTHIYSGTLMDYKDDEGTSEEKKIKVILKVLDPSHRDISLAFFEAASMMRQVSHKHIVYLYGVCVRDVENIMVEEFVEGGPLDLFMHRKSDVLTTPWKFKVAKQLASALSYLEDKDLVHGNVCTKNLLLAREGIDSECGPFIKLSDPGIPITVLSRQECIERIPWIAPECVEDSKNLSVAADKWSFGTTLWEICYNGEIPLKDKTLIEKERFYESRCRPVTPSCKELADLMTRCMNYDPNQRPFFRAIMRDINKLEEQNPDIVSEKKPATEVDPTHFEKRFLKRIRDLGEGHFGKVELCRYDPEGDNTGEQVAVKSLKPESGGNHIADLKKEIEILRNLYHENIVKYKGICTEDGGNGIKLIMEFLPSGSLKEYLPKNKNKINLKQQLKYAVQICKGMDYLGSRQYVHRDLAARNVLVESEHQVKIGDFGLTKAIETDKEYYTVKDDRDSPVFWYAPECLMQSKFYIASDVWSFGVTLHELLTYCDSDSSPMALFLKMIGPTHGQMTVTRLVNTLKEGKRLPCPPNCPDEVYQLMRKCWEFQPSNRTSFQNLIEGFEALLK
# T4 sequence (O60674 whole entry): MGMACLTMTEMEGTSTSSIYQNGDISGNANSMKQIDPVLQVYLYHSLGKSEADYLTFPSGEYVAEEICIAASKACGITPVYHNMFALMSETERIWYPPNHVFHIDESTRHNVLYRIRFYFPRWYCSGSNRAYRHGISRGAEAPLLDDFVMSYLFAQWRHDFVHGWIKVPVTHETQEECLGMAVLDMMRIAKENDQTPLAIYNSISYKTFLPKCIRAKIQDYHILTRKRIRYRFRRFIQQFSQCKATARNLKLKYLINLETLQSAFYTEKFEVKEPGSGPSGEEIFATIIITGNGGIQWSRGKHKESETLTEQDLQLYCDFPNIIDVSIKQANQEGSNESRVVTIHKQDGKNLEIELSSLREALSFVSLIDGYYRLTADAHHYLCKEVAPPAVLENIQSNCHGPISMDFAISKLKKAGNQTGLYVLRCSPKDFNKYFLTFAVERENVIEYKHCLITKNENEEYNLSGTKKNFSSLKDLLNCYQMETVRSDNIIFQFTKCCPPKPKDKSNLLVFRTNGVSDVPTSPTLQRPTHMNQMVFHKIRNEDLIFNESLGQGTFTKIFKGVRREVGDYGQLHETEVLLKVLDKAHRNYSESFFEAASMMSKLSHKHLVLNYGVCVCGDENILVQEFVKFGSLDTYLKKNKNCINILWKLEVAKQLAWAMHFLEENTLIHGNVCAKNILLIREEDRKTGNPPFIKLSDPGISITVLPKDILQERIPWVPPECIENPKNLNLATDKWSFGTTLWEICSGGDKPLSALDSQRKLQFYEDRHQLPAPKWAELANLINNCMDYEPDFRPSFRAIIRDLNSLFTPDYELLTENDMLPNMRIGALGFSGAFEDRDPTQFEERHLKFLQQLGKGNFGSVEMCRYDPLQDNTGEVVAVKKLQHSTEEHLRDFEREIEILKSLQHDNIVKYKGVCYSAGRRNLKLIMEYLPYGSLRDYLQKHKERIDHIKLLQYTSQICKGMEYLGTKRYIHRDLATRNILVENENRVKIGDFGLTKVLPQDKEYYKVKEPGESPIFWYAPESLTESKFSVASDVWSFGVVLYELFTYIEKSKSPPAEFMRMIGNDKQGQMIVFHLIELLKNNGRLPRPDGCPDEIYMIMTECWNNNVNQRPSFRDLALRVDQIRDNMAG
# T2 sequence (P29597 whole entry): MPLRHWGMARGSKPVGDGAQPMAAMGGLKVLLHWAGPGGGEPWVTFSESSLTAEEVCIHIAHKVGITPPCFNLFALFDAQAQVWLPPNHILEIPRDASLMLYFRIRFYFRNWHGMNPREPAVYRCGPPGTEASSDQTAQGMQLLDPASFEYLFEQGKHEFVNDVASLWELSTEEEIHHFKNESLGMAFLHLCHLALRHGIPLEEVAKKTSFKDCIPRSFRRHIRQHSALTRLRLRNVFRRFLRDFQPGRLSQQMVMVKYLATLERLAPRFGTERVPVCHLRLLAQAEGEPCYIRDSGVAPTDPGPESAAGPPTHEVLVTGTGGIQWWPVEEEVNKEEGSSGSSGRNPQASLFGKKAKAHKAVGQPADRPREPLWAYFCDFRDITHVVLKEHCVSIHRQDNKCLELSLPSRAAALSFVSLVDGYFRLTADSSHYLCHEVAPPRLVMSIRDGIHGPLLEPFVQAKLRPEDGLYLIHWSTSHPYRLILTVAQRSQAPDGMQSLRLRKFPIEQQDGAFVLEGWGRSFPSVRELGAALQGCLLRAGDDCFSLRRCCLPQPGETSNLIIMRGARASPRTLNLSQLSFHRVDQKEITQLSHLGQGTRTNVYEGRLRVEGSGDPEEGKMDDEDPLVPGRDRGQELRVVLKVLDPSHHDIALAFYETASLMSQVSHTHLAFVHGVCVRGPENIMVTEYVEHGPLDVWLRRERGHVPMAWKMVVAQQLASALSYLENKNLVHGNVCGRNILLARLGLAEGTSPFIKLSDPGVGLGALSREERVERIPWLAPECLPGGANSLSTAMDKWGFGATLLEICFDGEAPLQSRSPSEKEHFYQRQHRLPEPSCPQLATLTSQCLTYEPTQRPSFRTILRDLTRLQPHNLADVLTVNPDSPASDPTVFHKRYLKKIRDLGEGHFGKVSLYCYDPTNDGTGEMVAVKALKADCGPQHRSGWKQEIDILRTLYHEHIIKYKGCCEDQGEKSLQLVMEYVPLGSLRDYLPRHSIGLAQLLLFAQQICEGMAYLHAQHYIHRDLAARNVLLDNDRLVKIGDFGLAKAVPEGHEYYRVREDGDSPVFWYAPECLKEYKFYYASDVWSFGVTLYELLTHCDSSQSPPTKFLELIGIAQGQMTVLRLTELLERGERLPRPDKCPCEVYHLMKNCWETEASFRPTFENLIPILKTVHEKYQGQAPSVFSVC
SMILES,inhibition at 1 µM [1] [%],inhibition at 1 µM [2] [%],inhibition at 1 µM [3] [%],inhibition at 1 µM [4] [%]
"COCC(=O)N1CCN(c2cc(-c3cn([C@@H](C)C(C)C)c(=O)c4c(N)n[nH]c34)nn2C)CC1 [Example 17, 3-amino-7-(5-(4-(methoxyacetyl)piperazin-1-yl)-1-methyl-1H-pyrazol-3-yl)-5-((2S)-3-methylbutan-2-yl)-1,5-dihydro-4H-pyrazolo[4,3-c]pyridin-4-one]",97,100,99,99
"CC(C)[C@H](C)n1cc(-c2cc(N3CCC(C)(O)CC3)n(C)n2)c2[nH]nc(N)c2c1=O [Example 18, 3-amino-7-(5-(4-hydroxy-4-methylpiperidin-1-yl)-1-methyl-1H-pyrazol-3-yl)-5-((2S)-3-methylbutan-2-yl)-1,5-dihydro-4H-pyrazolo[4,3-c]pyridin-4-one]",96,99,99,98
"CC(C)[C@H](C)n1cc(-c2cc(N3CCCCC3)n(C)n2)c2[nH]nc(N)c2c1=O [Example 19, 3-amino-5-((2S)-3-methylbutan-2-yl)-7-(1-methyl-5-(piperidin-1-yl)-1H-pyrazol-3-yl)-1,5-dihydro-4H-pyrazolo[4,3-c]pyridin-4-one]",98,99,99,98
"CC(C)[C@H](C)n1cc(-c2cc(N3CCC[C@H]3CO)n(C)n2)c2[nH]nc(N)c2c1=O [Example 20, 3-amino-7-(5-((2S)-2-(hydroxymethyl)pyrrolidin-1-yl)-1-methyl-1H-pyrazol-3-yl)-5-((2S)-3-methylbutan-2-yl)-1,5-dihydro-4H-pyrazolo[4,3-c]pyridin-4-one]",95,99,100,98
"CC(C)[C@H](C)n1cc(-c2cc(N3CCC[C@@H]3CO)n(C)n2)c2[nH]nc(N)c2c1=O [Example 22, 3-amino-7-(5-((2R)-2-(hydroxymethyl)pyrrolidin-1-yl)-1-methyl-1H-pyrazol-3-yl)-5-((2S)-3-methylbutan-2-yl)-1,5-dihydro-4H-pyrazolo[4,3-c]pyridin-4-one]",96,99,99,98

# Results, then the compound that gave them:
inhibition at 1 µM [1] [%],inhibition at 1 µM [2] [%],inhibition at 1 µM [3] [%],inhibition at 1 µM [4] [%],SMILES
97,99,99,98,"CC(C)[C@H](C)n1cc(-c2cc(N3CC[C@@H](O)C3)n(C)n2)c2[nH]nc(N)c2c1=O [Example 21, 3-amino-7-(5-((3R)-3-hydroxypyrrolidin-1-yl)-1-methyl-1H-pyrazol-3-yl)-5-((2S)-3-methylbutan-2-yl)-1,5-dihydro-4H-pyrazolo[4,3-c]pyridin-4-one]"
97,99,99,98,"CC(C)[C@H](C)n1cc(-c2cc(N3CC[C@H](O)C3)n(C)n2)c2[nH]nc(N)c2c1=O [Example 23, 3-amino-7-(5-((3S)-3-hydroxypyrrolidin-1-yl)-1-methyl-1H-pyrazol-3-yl)-5-((2S)-3-methylbutan-2-yl)-1,5-dihydro-4H-pyrazolo[4,3-c]pyridin-4-one]"
96,100,99,98,"CO[C@@H]1CCN(c2cc(-c3cn([C@@H](C)C(C)C)c(=O)c4c(N)n[nH]c34)nn2C)C1 [Example 24, 3-amino-7-(5-((3R)-3-methoxypyrrolidin-1-yl)-1-methyl-1H-pyrazol-3-yl)-5-((2S)-3-methylbutan-2-yl)-1,5-dihydro-4H-pyrazolo[4,3-c]pyridin-4-one]"
98,100,99,98,"CO[C@H]1CCN(c2cc(-c3cn([C@@H](C)C(C)C)c(=O)c4c(N)n[nH]c34)nn2C)C1 [Example 25, 3-amino-7-(5-((3S)-3-methoxypyrrolidin-1-yl)-1-methyl-1H-pyrazol-3-yl)-5-((2S)-3-methylbutan-2-yl)-1,5-dihydro-4H-pyrazolo[4,3-c]pyridin-4-one]"
88,98,98,96,"COC[C@@H]1CCCN1c1cc(-c2cn([C@@H](C)C(C)C)c(=O)c3c(N)n[nH]c23)nn1C [Example 26, 3-amino-7-(5-((2S)-2-(methoxymethyl)pyrrolidin-1-yl)-1-methyl-1H-pyrazol-3-yl)-5-((2S)-3-methylbutan-2-yl)-1,5-dihydro-4H-pyrazolo[4,3-c]pyridin-4-one]"

# Source: US9637483B2, “Heterocyclic compound” (TAKEDA PHARMACEUTICAL COMPANY LIMITED, priority 2013, dated 2017)
